From patent publication US20120264827A1, “SULFANYLAMIDE DERIVATIVES, USES THEREOF AND COMPOSITIONS COMPRISING THEM” (YISSUM RESEARCH DEVELOPMENT COMPANY OF THE HEBREW …, priority 2009, published 2012)
Where two headings read alike, the source gives them in different places.

Key:
[1] = system: maximal electroshock seizure (MES); assay: Maximal electroshock seizure test (MES), mice, intraperitoneal; type: in vivo; details: ip;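 note: adult male CF no. 1 albino mice of 18–25 g, given compound intraperitoneally as a 0.5% methylcellulose suspension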
[2] = system: subcutaneous metrazol (pentylenetetrazol) seizure; assay: Subcutaneous metrazol seizure threshold test (scMet), mice, intraperitoneal; type: in vivo; details: ip;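 note: adult male CF no. 1 albino mice weighing 18-25 g, dosed intraperitoneally with compounds suspended in 0.5% methylcellulose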
[3] = system: maximal electroshock seizure (MES); assay: Maximal electroshock seizure test (MES), rats, oral; details: Rattus norvegicus, po, read-out: Anti-MES activity (number of animals protected/number of animals tested);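 note: adult male Sprague-Dawley rats received test compounds by mouth as a suspension in 0.5% methylcellulose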
Description: The tested compounds were suspended in 0.5% methylcellulose and administered (a) intraperitioneally (ip) to adult male CF no. 1 albino mice (18-25 g) in volume of 0.01 mL/g body weight and (b) orally to adult male Sprague-Dawley albino rats (100-150 g) in volume of 0.04 mL per 10 g of body weight.
The TD50 was determined by varying the dose of the tested compounds until four points were established between the dose level that induced no signs of minimal motor impairment in any of the animals and the dose at which all the animals were considered impaired. […] The PIs were calculated by dividing the TD50 by the ED50.

[4] = 30 mg/kg, 0.5 h after administration
[5] = 30 mg/kg, 4 h after administration
[6] = 100 mg/kg, 0.5 h after administration
[7] = 100 mg/kg, 4 h after administration
[8] = 300 mg/kg, 0.5 h after administration
[9] = 300 mg/kg, 4 h after administration

| melting point [°C] | Structure (SMILES) | MES (number of animals protected/number of animals tested) [1, 4] | MES (number of animals protected/number of animals tested) [1, 5] | MES (number of animals protected/number of animals tested) [1, 6] | MES (number of animals protected/number of animals tested) [1, 7] | MES (number of animals protected/number of animals tested) [1, 8] | MES (number of animals protected/number of animals tested) [1, 9] | scMet (number of animals protected/number of animals tested) [2, 4] | scMet (number of animals protected/number of animals tested) [2, 5] | scMet (number of animals protected/number of animals tested) [2, 6] | scMet (number of animals protected/number of animals tested) [2, 7] | scMet (number of animals protected/number of animals tested) [2, 8] | scMet (number of animals protected/number of animals tested) [2, 9] | responders at 30 mg/kg ([3]; 0.5 h) [%] | responders at 30 mg/kg ([3]; 1 h) [%] | responders at 30 mg/kg ([3]; 2 h) [%] | responders at 30 mg/kg ([3]; 4 h) [%] | responders at 30 mg/kg ([3]; […]) [%] |
| --- | --- | --- | --- | --- | --- | --- | --- | --- | --- | --- | --- | --- | --- | --- | --- | --- | --- | --- |
| – | CCCC(C(=O)Nc1ccc(S(N)(=O)=O)cc1)C(C)(C)C (stereo not drawn) [Compound 22, 2-tert-Butyl-N-(4-sulfamoyl-phenyl)-pentanamide] | 0/1 | 0/1 | 0/3 | 0/3 | 0/1 | 0/1 | 0/1 0/1 0/1 | 0/1 0/1 0/1 | 0/1 0/1 0/1 | 0/1 0/1 0/1 | 0/1 0/1 0/1 | 0/1 0/1 0/1 | – | – | – | – | – |
| – | CC(C)C(C(=O)Nc1ccc(S(N)(=O)=O)cc1)C(C)C [Compound 13, 2-Isopropyl-3-methyl-N-(4-sulfamoyl-phenyl)-butyramide] | 0/1 | 0/1 | 0/3 | 0/3 | 0/1 | 0/1 | 0/1 0/1 0/1 | 0/1 0/1 0/1 | 0/1 0/1 0/1 | 0/1 0/1 0/1 | 0/1 0/1 0/1 | 0/1 0/1 0/1 | 0 | 0 | 0 | 50 | 0 |
| – | CCC(C(=O)Nc1ccc(S(N)(=O)=O)cc1)C(C)(C)C (stereo not drawn) [Compound 12, 2-Ethyl-3,3-dimethyl-N-(4-sulfamoyl-phenyl)-butyramide] | 0/1 | 0/1 | 0/3 | 1/3 | 0/1 | 1/1 | 0/1 0/1 0/1 | 0/1 0/1 0/1 | 0/1 0/1 0/1 | 0/1 0/1 0/1 | 0/1 0/1 0/1 | 0/1 0/1 0/1 | – | – | – | – | – |
| – | CCC(CC)C(=O)NCCc1ccc(S(N)(=O)=O)cc1 [Compound 29, 2-Ethyl-N-[2-(4-sulfamoyl-phenyl)-ethyl]-butyramide] | 0/1 | 1/1 | 0/3 | 1/3 | 0/1 | 1/1 | 0/1 0/1 0/1 | 0/1 0/1 0/1 | 0/1 0/1 0/1 | 0/1 0/1 0/1 | 0/1 0/1 0/1 | 0/1 0/1 0/1 | 50 | 75 | 25 | 25 | 25 |
| – | CC(C)C(C(=O)Nc1ccc(S(N)(=O)=O)cc1)C(C)(C)C (stereo not drawn) [Compound 14, 2-Isopropyl-3,3-dimethyl-N-(4-sulfamoyl-phenyl)-butyramide] | 0/1 | 0/1 | 0/3 | 3/3 | 0/1 | 1/1 | 0/1 0/1 0/1 | 0/1 0/1 0/1 | 0/1 0/1 0/1 | 0/1 0/1 0/1 | 0/1 0/1 0/1 | 0/1 0/1 0/1 | – | – | – | – | – |
| – | CCC(C)C(=O)Nc1ccc(S(N)(=O)=O)cc1 (stereo not drawn) [Compound 10, 2-Methyl-N-(4-sulfamoyl-phenyl)-butyramide] | 1/1 | 1/1 | 3/3 | 3/3 | 1/1 | 1/1 | 0/1 0/1 0/1 | 0/1 0/1 0/1 | 0/1 0/1 0/1 | 0/1 0/1 0/1 | 0/1 0/1 0/1 | 0/1 0/1 0/1 | 50 | 100 | 100 | 100 | 50 |
| – | CCCC(CC)C(=O)Nc1ccc(S(N)(=O)=O)cc1 (stereo not drawn) [Compound 17, 2-Ethyl-N-(4-sulfamoyl-phenyl)-pentanamide] | 0/1 | 0/1 | 0/3 | 1/3 | 0/1 | 1/1 | 0/1 0/1 0/1 | 0/1 0/1 0/1 | 0/1 0/1 0/1 | 0/1 0/1 0/1 | 0/1 0/1 0/1 | 0/1 0/1 0/1 | – | – | – | – | – |
| – | CC(C)(C)CC(=O)Nc1ccc(S(N)(=O)=O)cc1 [Compound 15, 3,3-Dimethyl-N-(4-sulfamoyl-phenyl)-butyramide] | 0/1 | 0/1 | 5/7 | 1/3 | 4/5 | 1/1 | 0/1 0/1 0/1 | 0/1 0/1 0/1 | 0/1 0/1 0/1 | 0/1 0/1 0/1 | 0/1 0/1 0/1 | 0/1 0/1 0/1 | 25 | 75 | 100 | 100 | 75 |
| 157 to 158 | CC(C)(C)C(=O)NCc1ccc(S(N)(=O)=O)cc1 [Compound 26, 2,2-Dimethyl-N-(4-sulfamoyl-benzyl)-propionamide] | 0/1 | 0/1 | 0/3 | 0/3 | 0/1 | 0/1 | 0/1 0/1 0/1 | 0/1 0/1 0/1 | 0/1 0/1 0/1 | 0/1 0/1 0/1 | 0/1 0/1 0/1 | 0/1 0/1 0/1 | – | – | – | – | – |
| – | CCC(C)CC(=O)Nc1ccc(S(N)(=O)=O)cc1 (stereo not drawn) [Compound 24, 3-Methyl-N-(4-sulfamoyl-phenyl)-pentanamide] | 0/1 | 0/1 | 0/3 | 0/3 | 0/1 | 0/1 | 0/1 0/1 0/1 | 0/1 0/1 0/1 | 0/1 0/1 0/1 | 0/1 0/1 0/1 | 0/1 0/1 0/1 | 0/1 0/1 0/1 | – | – | – | – | – |
